The target in series [1] is T1, Recombinant human NK3 (hNK3) receptor (Homo sapiens, UniProt P29371).
T1 construct: expressed in transfected cells
T1 sequence (P29371 1-465): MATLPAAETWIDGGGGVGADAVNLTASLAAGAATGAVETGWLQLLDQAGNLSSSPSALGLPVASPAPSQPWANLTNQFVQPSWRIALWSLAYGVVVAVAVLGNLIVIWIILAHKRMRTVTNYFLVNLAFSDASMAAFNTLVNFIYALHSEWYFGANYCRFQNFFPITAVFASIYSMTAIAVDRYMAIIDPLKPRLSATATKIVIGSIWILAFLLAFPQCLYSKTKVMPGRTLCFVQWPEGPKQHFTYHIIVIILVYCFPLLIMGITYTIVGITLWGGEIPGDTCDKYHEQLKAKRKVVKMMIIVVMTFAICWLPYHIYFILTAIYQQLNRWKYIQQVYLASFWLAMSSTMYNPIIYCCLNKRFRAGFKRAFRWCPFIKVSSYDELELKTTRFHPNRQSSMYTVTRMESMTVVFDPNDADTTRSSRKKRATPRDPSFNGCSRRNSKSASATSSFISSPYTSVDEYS
The series can be described thus: NK3 receptor binding, [3H]SR142801 displacement, membrane preparations. The following applies: second value of the cell pKi NK1/NK3; hNK3 receptor, [3H]SR142801. In outline:
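Room-temperature, 90-min filtration binding assay using about 2.5 μg recombinant receptor membranes per well; separation on polyethyleneimine-treated glass-fibre (GF/C) filters and liquid scintillation read-out, with 10 μM SB222200 for nonspecific binding.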

For series [2] the following is noted: phase II trial, cited from earlier work.
The next series deals with human NK1 receptor (Homo sapiens, UniProt P25103). Put plainly: NK1 receptor binding, [3H]substance P displacement, CHO cell membranes. Particulars: first value of the cell pKi NK1/NK3; human NK1 receptor, [3H]substance P.
Sequence of human NK1 receptor (P25103 whole entry): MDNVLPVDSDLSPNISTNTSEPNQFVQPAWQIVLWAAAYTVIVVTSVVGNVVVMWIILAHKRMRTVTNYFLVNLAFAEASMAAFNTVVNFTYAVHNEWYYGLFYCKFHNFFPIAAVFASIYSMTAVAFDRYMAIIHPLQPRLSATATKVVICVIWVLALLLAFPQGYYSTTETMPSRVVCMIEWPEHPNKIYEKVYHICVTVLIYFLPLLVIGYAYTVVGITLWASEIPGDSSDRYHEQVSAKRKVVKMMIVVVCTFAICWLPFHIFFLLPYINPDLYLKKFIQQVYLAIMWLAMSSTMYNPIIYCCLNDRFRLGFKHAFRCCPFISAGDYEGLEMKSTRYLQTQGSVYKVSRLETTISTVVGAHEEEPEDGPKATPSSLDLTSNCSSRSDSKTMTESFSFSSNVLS

The term melting point denotes the temperature, or range, at which the solid turns liquid. For the compound `CN(C(=O)C(C)(C)c1cc(C(F)(F)F)cc(C(F)(F)F)c1)c1cnc(NCCO)cc1-c1ccccc1Cl` [Example 67, 2-(3,5-Bis-trifluoromethyl-phenyl)-N-[4-(2-chloro-phenyl)-6-(2-hydroxy-ethylamino)-pyridin-3-yl]-N-methyl-isobutyramide], the melting point lay within 117 to 118 °C. Also, in series [1], the “pKi NK3” value came out at 7.94.
Take `CC(=O)N(C)C1(c2ccccc2)CCN(CCC[C@]2(c3ccc(Cl)c(Cl)c3)CCCN(C(=O)c3ccccc3)C2)CC1` [SR 142,801, Osanetant]: the “activity on positive symptoms of schizophrenia” value in series [2] (altered behavior, delusion, hallucinations, extreme emotions, excited motor activity, incoherent speech) was “active”. In series [2] (depression, anhedonia, social isolation, memory and attention deficits), the “activity in the treatment of negative symptoms of schizophrenia” value was “inactive”.
One may read the Ki as a dissociation constant, usually derived from enzyme kinetics or from competition with a known ligand. Consider `Cc1cc(C)cc(C(C)(C)C(=O)N(C)c2cnc(N3C[C@H](O)C[C@H]3CO)cc2-c2ccc(F)cc2C)c1` [Example 33, (2S,4R)-2-(3,5-Dimethyl-phenyl)-N-[4-(4-fluoro-2-methyl-phenyl)-6-(4-hydroxy-2-hydroxymethyl-pyrrolidin-1-yl)-pyridin-3-yl]-N-methyl-isobutyramide], for which the inhibitory constant (Ki) at human NK1 receptor was 1.17 nM; in series [1], 3.02 nM.
On to `CN(C(=O)C(C)(C)c1cc(C(F)(F)F)cc(C(F)(F)F)c1)c1cnc(N2CC[C@H](O)[C@H]2CO)cc1-c1ccccc1Br` [Example 130, (2R,3S)-2-(3,5-Bis-trifluoromethyl-phenyl)-N-[4-(2-bromo-phenyl)-6-(3-hydroxy-2-hydroxymethyl-pyrrolidin-1-yl)-pyridin-3-yl]-N-methyl-isobutyramide], for which the Ki at human NK1 receptor is 1.66 nM; in series [1] it was 2.29 nM.
On to `Cc1cc(F)ccc1-c1cc(N2C[C@H](O)C[C@H]2CO)ncc1N(C)C(=O)C(C)(C)c1cc(C(F)(F)F)cc(C(F)(F)F)c1` [Example 158, (2S,4R)-2-(3,5-Bis-trifluoromethyl-phenyl)-N-[4-(4-fluoro-2-methyl-phenyl)-6-(4-hydroxy-2-hydroxymethyl-pyrrolidin-1-yl)-pyridin-3-yl]-N-methyl-isobutyramide], for which the Ki on human NK1 receptor was 1.66 nM; in series [1], 0.955 nM.

(Values after US8404708B2, “Dual NK1/NK3 receptor antagonists” (Hoffmann-La Roche Inc., priority 2004, dated 2013).)
